Our source for the IC50 and Kd values is patent US8946216B2, “Indazole derivatives useful as ERK inhibitors” (Merck Sharp & Dohme Corp., priority 2010, dated 2015).

The target of test [1] is fully phosphorylated, active Mouse ERK2 protein (Mus musculus, UniProt P63085). Kind of test: Active ERK2 (aERK) assay, IMAP format. The test is classed as biochemical. The following applies: 30 min preincubation; 1 μM substrate peptide, 30 μM ATP; fluorescence polarization; read-out: aERK2 IC50. As for the experimental part:
Active ERK2 (aERK) Assay:
Activated ERK2 activity was also determined in the IMAP assay format using the procedure outlined above. 1 μl of 25× compound was added to 14 μl of kinase buffer containing 0.25 ng fully phosphorylated, active Mouse ERK2 protein. Following a 30 minute incubation, the reactions were initiated by addition of 10 μl of kinase buffer containing 1 μM ERK2 IMAP substrate peptide (0.9 μM unlabeled IPTTPITTTYFFFK--CONH2 and 100 nM IPTTPITTTYFFFK(5-carboxyfluorescein)-CONH2) and 30 μM ATP. Reactions proceeded for 30 minutes before termination by addition of 60 μl IMAP detection beads in binding buffer. Plates were read as above after 30 minute binding equilibration. Active compounds were reconfirmed in an independent assay.

In a further test the target is ERK protein (Homo sapiens, UniProt P28482). Kind of test: TdF (Temperature Dependence Fluorescence, thermal shift) assay for ERK. The test is classed as binding. Particulars: read-out: TdF Kd; 3 μM ERK protein, 15, 50 or 100 μM compound, Sypro Orange; Kd calculated from ΔTm; uncertainty estimated ±50%. The source says: Assays: TdF Assay for ERK
The SAR (Structure Activity Relationship) for ERK ligands covered by this invention was interrogated using the TdF (Temperature Dependence Fluorescence) assay or best known as thermal shift assay. The TdF assay was mainly conducted in the 96-well based CHROMO-4 real time fluorescence plate reader (BioRad). The Sypro Orange (Sigma-Aldrich), environmentally sensitive fluorescence dye, was used to monitor the protein folding-unfolding transition. Protein-ligand binding was gauged by the change (or shift) in the unfolding transition temperature (ΔTm) acquired at protein alone with respect to protein in the presence of ligand of interest.
Compound of interest was first prepared in DMSO stock (typical concentration: 10 mM). Sample of 20 μL was then added into the 96-well PCR plate, where it consisted of 3 μM. […] Final percentage of DMSO resided in the sample was 2%. The sample plate was heated from 30° C. to 90° C. with thermal ramping rate of 1 ° C./min. The fluorescence signals were acquired with excitation and emission wavelengths centered at 490 and 560 nm respectively. The instrument thermal stability was ±0.2° C. The melting temperatures (Tm) for ERK protein under aforementioned conditions occurred at 61.0±0.2° C. and 64.8±0.2° C. respectively.
Theoretical Basis for TdF-based Ligand Binding Affinity Constant
The derivation of TdF-based ligand binding affinity constant (Kd) followed closely those previously formulated by Brandts and Lin [2]. In brief, the binding constant of the ligand at the Tm is expressed as below: […]
where T0 is the midpoint of unfolding for unliganded protein and Tm is the midpoint of unfolding in presence of ligand. [LTm] is free ligand at Tm. The ΔHu and ΔCpu are the enthalpy of unfolding and heat capacity change of unfolding for the protein respectively. Following algorithm derived by Winsor and coworker, the T0, ΔHu and ΔCpu can be determined separately from nonlinear regression fitting the protein alone melting curve:
Where F(T) is the observed fluorescence intensity at any temperature T, Yn and Yu are the predicted fluorescence intensities for fully folded and unfolded protein, respectively; mn and mu are slope correction for changes in Yn and Yu with respect to changes in temperature (analogously replace T0 with Tm in the above equation for liganded protein to yield Tm).
where ΔHL(T) is the van't Hoff enthalpy of ligand binding at temperature T and ΔCpL is the heat capacity upon ligand binding. For simplicity, the ΔCpL and ΔHL(T) were set to zero and −7 kcal/mol respectively. The uncertainty in the calculated ligand binding affinity constant was estimated to be ±50%.

The target in test [2] is unphosphorylated Mouse ERK2 protein (inactive ERK2) (Mus musculus, UniProt P63085). Briefly: Coupled ERK2 (cERK) assay, coupled MEK1/ERK2 IMAP. Particulars: 30 min preincubation with inactive ERK2, then activation by human MEK1; 30 μM ATP; fluorescence polarization; read-out: cERK2 IC50. The test is classed as biochemical. The source says:
• 1. M. W. Pantoliana, E. C. Petrella, J. D. Kwasnoski, V. S. Lobanov, J. Myslik, E. Graf, T. Carver, E. Asel, B. A. Springer, P. Lane, F. R. Salemme, High-density miniaturized thermal shift assays as a general strategy for drug discovery, J. Biomol. Screen 6 (2001) 429-440 • 2. J. F. Brandts, L.-N. Lin, Study of strong to ultratight protein interactions using differential scanning calorimetry, Biochemistry 29 (1990) 6927-6940 • 3. Mayhood, T. W., Windsor, W. T., Ligand binding affinity determined by temperature-dependent circular dichroism: Cyclin-dependent kinase 2 inhibitors, Analytical Biochemistry 345 (2005) 187-197 Coupled ERK2 (cERK) Assay:
14 μl of kinase buffer (10 mM Tris.HCl pH 7.2, 10 mM MgCl2, 0.01% Tween-20, 1 mM DTT) containing 0.4 ng unphosphorylated Mouse ERK2 protein was added to each well of a black 384-well assay plate. […] DMSO concentration during initial incubation is 6.7%. ERK2 activity was determined to be insensitive to DMSO concentrations up to 20%. ERK2 was then activated and it's kinase activity measured by the addition of 10 μl kinase buffer with the following components (final concentration per reaction): 2 ng active (phosphorylated) human MEK1 protein and 4 μM (total) ERK2 IMAP substrate peptides (3.9 μM unlabeled IPTTPITTTYFFFK-CONH2 and 100 nM IPTTPITTTYFFFK(5-carboxyfluorescein)-CONH2) and 30 μM ATP. DMSO concentration during ERK activation was 4%. After one hour, reactions were terminated by addition of 60 μl IMAP detections beads in binding buffer (Molecular Devices). Binding was allowed to equilibrate for 30 minutes before reading the plate on an LJL Analyst Fluorescence Polarization plate reader. […] Active compounds were reconfirmed in an independent assay.
(In general: Fluorescence polarisation rises when a labelled molecule tumbles more slowly, as on binding a larger partner.)

Chain of fully phosphorylated, active Mouse ERK2 protein (P63085 whole entry): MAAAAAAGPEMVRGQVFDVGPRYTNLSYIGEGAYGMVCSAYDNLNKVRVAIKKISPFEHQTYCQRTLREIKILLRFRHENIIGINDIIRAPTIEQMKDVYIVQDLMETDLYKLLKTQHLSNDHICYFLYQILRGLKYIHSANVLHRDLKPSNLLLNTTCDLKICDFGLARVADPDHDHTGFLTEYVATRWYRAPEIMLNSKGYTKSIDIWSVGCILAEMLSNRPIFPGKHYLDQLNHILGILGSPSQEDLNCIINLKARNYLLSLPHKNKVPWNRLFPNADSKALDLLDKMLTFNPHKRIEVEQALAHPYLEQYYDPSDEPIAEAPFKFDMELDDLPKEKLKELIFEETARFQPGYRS
Chain of unphosphorylated Mouse ERK2 protein (inactive ERK2) (P63085 whole entry): as above
Chain of ERK protein (P28482 2-360): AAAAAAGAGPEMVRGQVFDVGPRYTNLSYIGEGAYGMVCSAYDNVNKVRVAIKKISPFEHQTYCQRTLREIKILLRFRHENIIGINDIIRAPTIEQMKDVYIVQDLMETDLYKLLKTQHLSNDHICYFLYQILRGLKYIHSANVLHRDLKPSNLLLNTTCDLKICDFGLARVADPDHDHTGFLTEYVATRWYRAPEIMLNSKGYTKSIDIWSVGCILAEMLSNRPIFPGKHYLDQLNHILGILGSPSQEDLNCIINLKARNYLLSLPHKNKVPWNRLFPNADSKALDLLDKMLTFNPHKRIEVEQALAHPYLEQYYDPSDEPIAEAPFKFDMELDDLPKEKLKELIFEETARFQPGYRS

In general, IC50 refers to the point on the concentration scale where inhibition reaches its midpoint. On to `O=C(Nc1ccc2[nH]nc(-c3ccncc3)c2c1)C1CN(CCc2ccccc2)CCS1` (stereo not shown) [Compound 68, 4-(2-PHENYLETHYL)-N-[3-(4-PYRIDINYL)-1H-INDAZOL-5-YL]-2-THIOMORPHOLINECARBOXAMIDE], for which, in test [1], the concentration for half-maximal inhibition (IC50) was found to be 895 nM.
Usually Kd stands for the constant that tells how readily two partners part at equilibrium. As to `O=C(Nc1ccc2[nH]nc(-c3ccncc3)c2c1)C1CN(Cc2c(F)ccc(F)c2Cl)CCO1` (stereo not shown) [Compound 48, 4-[(2-CHLORO-3,6-DIFLUOROPHENYL)METHYL]-N-[3-(4-PYRIDINYL)-1H-INDAZOL-5-YL]-2-MORPHOLINECARBOXAMIDE], the Kd on ERK protein is 202 nM. In addition, the IC50 came to 909 nM in test [2] and 371 nM in test [1].
For `O=C(Nc1ccc2[nH]nc(-c3ccncc3)c2c1)C1CN(Cc2ccccc2)CCS1` (stereo not shown) [Compound 36, 4-(PHENYLMETHYL)-N-[3-(4-PYRIDINYL)-1H-INDAZOL-5-YL]-2-THIOMORPHOLINECARBOXAMIDE] the same measures were 62 nM, 166 nM and 1840 nM.
For `O=C(Nc1ccc2[nH]nc(-c3ccncc3)c2c1)C1CN(Cc2cccc(F)c2F)CCO1` (stereo not shown) [Compound 43, 4-[(2,3-DIFLUOROPHENYL)METHYL]-N-[3-(4-PYRIDINYL)-1H-INDAZOL-5-YL]-2-MORPHOLINECARBOXAMIDE], on ERK protein, the Kd was 214 nM. Also, the results for the half-maximal inhibitory concentration (IC50) in test [2] and in test [1] were 218 nM and 139 nM, respectively.
Regarding `CN1CC(Cc2ccccc2)CC(C(=O)Nc2ccc3[nH]nc(-c4ccncc4)c3c2)C1` (stereo not shown) [Compound 78, 1-METHYL-5-(PHENYLMETHYL)-N-[3-(4-PYRIDINYL)-1H-INDAZOL-5-YL]-3-PIPERIDINECARBOXAMIDE], the IC50 in test [1] was determined as 1.9 nM.
Regarding `O=C(Nc1ccc2[nH]nc(-c3ccncc3)c2c1)C1CN(Cc2ccccc2)CCC12OCCO2` (stereo not shown) [Compound 72, 8-(PHENYLMETHYL)-N-[3-(4-PYRIDINYL)-1H-INDAZOL-5-YL]-1,4-DIOXA-8-AZASPIRO[4.5]DECANE-6-CARBOXAMIDE], at ERK protein, the Kd was 222 nM. In test [1], the half-inhibitory concentration (IC50) was found to be 1000 nM.
Take `O=C(Nc1ccc2[nH]nc(-c3ccncc3)c2c1)[C@@H]1CCN(Cc2ccccc2)C1` [Compound 62, 1-(PHENYLMETHYL)-N-[3-(4-PYRIDINYL)-1H-INDAZOL-5-YL]-3(R)-PYRROLIDINECARBOXAMIDE]: the equilibrium dissociation constant (Kd) at ERK protein was 34.5 nM. Besides, the IC50 in test [1] is 287 nM.
Turning to `O=C(Nc1ccc2[nH]nc(-c3ccncc3)c2c1)C1CN(CCCc2ccccc2)CCS1` (stereo not shown) [Compound 67, 4-(3-PHENYLPROPYL)-N-[3-(4-PYRIDINYL)-1H-INDAZOL-5-YL]-2-THIOMORPHOLINECARBOXAMIDE], the IC50 in test [1] is 1000 nM.
As for `N#Cc1ccc(CN2CCOC(C(=O)Nc3ccc4[nH]nc(-c5ccncc5)c4c3)C2)cc1` (stereo not shown) [Compound 30, 4-[(4-CYANOPHENYL)METHYL]-N-[3-(4-PYRIDINYL)-1H-INDAZOL-5-YL]-2-MORPHOLINECARBOXAMIDE], the Kd at ERK protein is 3290 nM. In addition, the IC50 in test [2] stood at 1280 nM.
Take `O=C(Nc1ccc2[nH]nc(-c3ccncc3)c2c1)C1CN(Cc2ccsc2)CCS1` (stereo not shown) [Compound 14, N-[3-(4-PYRIDINYL)-1H-INDAZOL-5-YL]-4-(3-THIENYLMETHYL)-2-THIOMORPHOLINECARBOXAMIDE]: the Kd at ERK protein is 34 nM. In addition, the IC50 in test [2] stood at 183 nM.
For `CC(c1ccccc1)N1CCC[C@H](C(=O)Nc2ccc3[nH]nc(-c4ccncc4)c3c2)C1` (stereo partly drawn) [Compound 73, 1-(1-PHENYLETHYL)-N-[3-(4-PYRIDINYL)-1H-INDAZOL-5-YL]-3(S)-PIPERIDINECARBOXAMIDE], the dissociation constant (Kd) on ERK protein is 25.9 nM. For the same molecule, the IC50 in test [1] is 192 nM.
Take `COc1ccc(CN2CCOC(C(=O)Nc3ccc4[nH]nc(-c5ccncc5)c4c3)C2)cc1` (stereo not shown) [Compound 33, 4-[(4-METHOXYPHENYL)METHYL]-N-[3-(4-PYRIDINYL)-1H-INDAZOL-5-YL]-2-MORPHOLINECARBOXAMIDE]: on ERK protein, the equilibrium dissociation constant (Kd) is 1140 nM. In test [2], the IC50 is 226 nM.
For `O=C(Nc1ccc2[nH]nc(-c3ccncc3)c2c1)C1CN(Cc2ccsc2)CCO1` (stereo not shown) [Compound 3, N-[3-(4-PYRIDINYL)-1H-INDAZOL-5-YL]-4-(3-THIENYLMETHYL)-2-MORPHOLINECARBOXAMIDE] the same measures were 77 nM and 87.6 nM.
For `O=C(Nc1ccc2[nH]nc(-c3ccncc3)c2c1)C1CN(Cc2ccccc2)CCO1` (stereo not shown) [Compound 20, 4-(PHENYLMETHYL)-N-[3-(4-PYRIDINYL)-1H-INDAZOL-5-YL]-2-MORPHOLINECARBOXAMIDE] the same measures were 10 nM and 51.1 nM.
`O=C(Nc1ccc2[nH]nc(-c3ccncc3)c2c1)C1CN(Cc2cc(F)ccc2F)CCO1` (stereo not shown) [Compound 51, 4-[(2,5-DIFLUOROPHENYL)METHYL]-N-[3-(4-PYRIDINYL)-1H-INDAZOL-5-YL]-2-MORPHOLINECARBOXAMIDE]: on ERK protein, the Kd was 727 nM. Moreover, the half-inhibitory concentration (IC50) in test [2] was determined as 400 nM.
For `O=C(NCc1ccccc1)c1n[nH]c2ccc(NC(=O)C3CN(Cc4ccccc4F)CCS3)cc12` (stereo not shown) [Compound 77, 5-[[[4-[(2-FLUOROPHENYL)METHYL]-2-THIOMORPHOLINYL]CARBONYL]AMINO]-N-(PHENYLMETHYL)-1H-INDAZOLE-3-CARBOXAMIDE] the same measures were 1800 nM and 3100 nM.
The like results for `O=C(Nc1ccc2[nH]nc(-c3ccncc3)c2c1)C1CN(Cc2cccnc2)CCS1` (stereo not shown) [Compound 8, N-[3-(4-PYRIDINYL)-1H-INDAZOL-5-YL]-4-(3-PYRIDINYLMETHYL)-2-THIOMORPHOLINECARBOXAMIDE] were, in that order, 4610 nM and 1070 nM.
The like results for `O=C(Nc1ccc2[nH]nc(-c3ccncc3)c2c1)C1CNCCN1c1ccccc1` (stereo not shown) [Compound 54, 1-PHENYL-N-[3-(4-PYRIDINYL)-1H-INDAZOL-5-YL]-2-PIPERAZINECARBOXAMIDE] were, in that order, 30 nM and 168 nM.
With `O=C(Nc1ccc2[nH]nc(-c3ccncc3)c2c1)C1CN(Cc2c(F)cccc2C(F)(F)F)CCO1` (stereo not shown) [Compound 39, 4-[[2-FLUORO-6-(TRIFLUOROMETHYL)PHENYL]METHYL]-N-[3-(4-PYRIDINYL)-1H-INDAZOL-5-YL]-2-MORPHOLINECARBOXAMIDE], the dissociation constant Kd at ERK protein was 715 nM. For the same molecule, the IC50 in test [2] was found to be 4760 nM.
The like results for `COc1ccc(CN2CCOC(C(=O)Nc3ccc4[nH]nc(-c5ccncc5)c4c3)C2)c(F)c1` (stereo not shown) [Compound 38, 4-[(2-FLUORO-4-METHOXYPHENYL)METHYL]-N-[3-(4-PYRIDINYL)-1H-INDAZOL-5-YL]-2-MORPHOLINECARBOXAMIDE] were, in that order, 588 nM and 556 nM.
